Data published in US20210290680A1, “METHODS AND COMPOSITIONS FOR MODULATING CELLULAR AGING” (Dorian Therapeutics, Inc., priority 2019, published 2021).

Key:
NALM cells = test: CAR-T in vitro cytotoxicity assay, CD19.CAR T cells; assay type: cell-based, human; details: 1:5 E:T, 72 hours, n=3
Protocol: Primary T cells were activated as described (Example 3), transduced with a lentivirus encoding for either a CD19.CAR or a GD2.CAR co-expressing shUSP16 #1, shUSP16 #2 or a scrambled shRNA (Control). Cells were cultured in IL-2 and sorted between days 6-13 for EGFRt. At day 16 cytotoxicity assays were performed. Briefly, cells were counted and 100,000 T cells (adjusted for EGFR expression) were plated at 1:5 Effector:Target (E:T) ratio. At 72 hours, the mixture of tumor cells and T cells were collected, stained for CD3-PE, CD8-BV510, CD19- or GD2-APC, EGFR-AF488 and Sytox and counted by flow cytometry (MACSQuant, Miltenyi Biotec) (FIGS. 30A and 30B). Counting beads (CountBright Absolute Counting beads, Invitrogen) were added before acquisition and absolute number was calculated as following (number of cell events/number of bead events)×(assigned bead count of the lot (beads/50 ul)/volume of sample (ul))=concentration of sample as cells/ul). NALM cells were used as target cells for CD19.CAR T cells and CHLA-55 cells were used as target for GD2.CAR T cells. Three different primary T cell cultures were tested for CD19 and GD2 CAR.

primary T cells = test: Stem cell memory T cell phenotype by flow cytometry (CD45RA+CD62L+); assay type: cell-based, human; details: for stem cell frequency (Tscm phenotype ratio), fold increase over Control: day 20, gated on CD8
Protocol: Primary T cells were activated as described (Example 3), transduced with a lentivirus encoding for either a shUSP16 or a non-targeting shRNA (Ctrl) and sorted for GFP on day 8. Cells were cultured in the presence of IL-2 and their phenotype was analyzed at day 20. Cells were stained for CD4-PerCP-5.5 or CD8-BV510, CD62L-Allophycocyanin, CD45RA-BV510 or PE-Cy7 (Biolegend). Naïve or stem cell memory T cells (TNa/SCM) were identified as Sytox^− GFP^+CD45RA^+CD62L^+. Number of TNa/SCM was calculated as (#CD4 or CD8 T cells*TNa/SCMpercentage)/100. Flow cytometry was performed on the MACQuant (Myltenyi Biotec) and the data analyzed with FlowJo (shCtrl vs shUSP CD4: 0.4978 vs 0.7915, p=0.0673 and CD8: 2.469 vs 4.984, p=0.00392, n=7). Downregulation of USP16 expression increases the number of CD4+CD45RA+CD62L+(FIG. 11A) and CD8+CD45RA+CD62L+(FIG. 11B) cells in culture by 1.7 (p=0.0205) and 1.9 (p=0.0097) times, respectively.
Primary T cells were activated as described (Example 3), transduced with a lentivirus encoding either a shUSP16 #1, shUSP16 #2 or a non-targeting shRNA (shCtrl) and cells were selected with puromycin at day 6. At day 15 cell were collected and analyzed by qPCR for the expression of LEF1 (FIG. 16A) and TCF7 (FIG. 16B), downstream regulators of the WNT pathway. At day 20, cells were stained for CD4-PE, CD8-BV510, CD62L-Allophycocyanin and CD45RA-APC-Cy7 (Biolegend). Stem cell memory T cells (Tscm) were identified as Sytox^− GFP^+CD45RA^+CD62L^+, central memory T cells (Tcm) as Sytox^−GFP^+CD45RA^−CD62L^+, effector memory T cells (Tem) as Sytox^−GFP^+CD45RA^−CD62L^−, and terminal effector T cell (Teff) as Sytox^−GFP^+CD45RA^+CD62L^− (FIG. 17A). Cells were gated on the CD8 population. The specific increase of Tscm was shown as phenotype ratio (FIG. 17B).
Primary T cells were activated as described (Example 3). At Day 6 post-activation, dynabeads were removed and T cells electroporated using the Neon Transfection System (ThermoFisher) with a 2.5:1 ratio sgRNA:Cas9. The experiment was performed following the protocol optimized for primary T cell by Synthego (CRISPR Editing Human Primary CD4+ T cells with RNPs using Neon Electroporation Protocol, 2018 version). The sgRNA used are the following: gUSP16 #1 5′-[…]-3′ (SEQ ID NO: 10) and gSynthego that comprises 3 different sgRNAs (gRNA-A: 5′-[…] 3′ (SEQ ID NO: 11); gRNA-B: 5′-[…]-3′ (SEQ ID NO: 12); gRNA-C: 5′-[…]-3′ (SEQ ID NO: 13)). Control T cells, identified as Mock, were electroporated but no Cas9:sgRNA mixture was added. […] At day 15 post-activation, cells were stained for CD4-PE, CD8-BV510, CD62L-Allophycocyanin and CD45RA-APC-Cy7 (Biolegend). Stem cell memory T cells (Tscm) were identified as Sytox^−GFP^+CD45RA^+CD62L^+ and graphed as ratio compared to mock cells (FIG. 22). The experiment was repeated using primary T cells obtained from buffy coats of 2 different healthy donors.
Primary T cells were activated as described (Example 3), transduced with a lentivirus encoding for either a CD19.CAR or a GD2.CAR co-expressing shUSP16 #1, shUSP16 #2 or a scrambled shRNA (Control). At day 15, GD2.CAR and CD19.CAR T cells were stained for EGFR-AF488 (R&D), CD3-PE, CD8-BV510, CD62L-Allophycocyanin and CD45RA-APC-Cy7 (Biolegend). Stem cell memory T cells (Tscm) were identified as FITC^+CD45RA^+CD62L^+, central memory T cells (Tcm) as FITC^+CD45RA^−CD62L^+, effector memory T cells (Tem) as FITC^+CD45RA^−CD62L^−, and terminal effector T cell (Teff) as FITC^+CD45RA^+CD62L^−. Cells were gated on the CD8 population. The specific increase of Tscm was shown as phenotype ratio (FIGS. 28A and 28B).

## shUSP16 #1: shRNA targeting USP16, 5′-GACTGTAAGACTGACAATAAA-3′ (SEQ ID NO: 8), pSIH backbone or co-expressed in CAR plasmid
NALM cells
  T cell number: 46674
  residual tumor cells (NALM): 29688
Primary T cells; CD19.CAR, day 15, n=5
  stem cell frequency (Tscm), fold change vs Control: 1.994
Primary T cells; GD2.CAR, day 15, n=4
  stem cell frequency (Tscm), fold change vs Control: 1.347
Primary T cells
  stem cell frequency (Tscm phenotype ratio), fold increase over Control: 2.022

## shUSP16 #2: shRNA targeting USP16, 5′-TATATCAGTTCACCCGTAAT-3′ (SEQ ID NO: 9), pSIH backbone or co-expressed in CAR plasmid
NALM cells
  T cell number: 58732
  residual tumor cells (NALM): 28462
Primary T cells; CD19.CAR, day 15, n=5
  stem cell frequency (Tscm), fold change vs Control: 2.273
Primary T cells; GD2.CAR, day 15, n=4
  stem cell frequency (Tscm), fold change vs Control: 1.383
Primary T cells
  stem cell frequency (Tscm phenotype ratio), fold increase over Control: 2.63
